Data published in patent US11759461B2, “Small molecule inhibitors of cancer stem cells and mesenchymal cancer types” (The Scripps Research Institute, priority 2017, dated 2023).

tested on: FOXC2-expressing HMLER cells; assay: Cell Titer Glo viability of FOXC2-HMLER cells (high throughput screen and 10-point response); assay type: cell-based; conditions: Homo sapiens; scored relative to parent compound 2; 72 hours; read-out: Activity Score, inhibition of FOXC2-expressing HMLER cells by Formula II compounds
Method: For high throughput screening, FOXC2-HMLER and HMLER cells were plated at 10^3 cells per well in white 384-well plates in 50 μL of MEGM medium (Lonza). Cells were allowed to attach for one hour before compound was transferred to each well as a DMSO solution using a 100 nL pintool head affixed to a PerkinElmer FX instrument. After 72-hour incubation, 30 μL of a Cell Titer Glo solution (diluted 1:6 in water, Promega) was dispensed into each well and luminance values were recorded using an Envision plate reader. […] All other miniaturized, selective viability experiments were performed as above using the indicated growth medium.
More specifically, in the high throughput screening assay above, each cell line was plated at 1,000 cells per well in 384-well plates, treated for 72 hours with 2 μM of test compound, and the viability of each line was determined in parallel by Cell Titer Glo (Promega) luminance measurements.

`COc1ccc(NCc2cc3cc4c(cc3n(CC(=O)Nc3ccccc3C)c2=O)OCCO4)cc1` [Compound 2BO] and `COc1ccc(NCc2cc3cc4c(cc3n(CC(=O)Nc3ccc(C)cc3)c2=O)OCCO4)cc1` [Compound 2BP] cannot be ordered by IC50: greater than 20 µM for the first, greater than 20 µM for the second.

`COc1ccc(NC(=O)Cn2c(=O)c(CNc3ccc(C)cc3)cc3cc(OC)c(OC)cc32)cc1` [Compound 2BQ] and `COc1cccc(NC(=O)Cn2c(=O)c(CNc3ccc(C)cc3)cc3cc(OC)c(OC)cc32)c1` [Compound 2BU] cannot be ordered by IC50: greater than 20 µM for the first, greater than 20 µM for the second.

`COc1ccc2cc(CNc3ccccc3)c(=O)n(CC(=O)Nc3cccc(F)c3)c2c1` [Compound 2BR] and `COc1ccc2cc(CNc3ccccc3)c(=O)n(CC(=O)Nc3cccc(Cl)c3)c2c1` [Compound 2BX] cannot be ordered by IC50: greater than 20 µM for the first, greater than 20 µM for the second.

`COc1ccc2cc(CNc3ccccc3)c(=O)n(CC(=O)Nc3cc(Cl)ccc3OC)c2c1` [Compound 2BS] and `COc1ccc2cc(CNc3ccccc3)c(=O)n(CC(=O)Nc3cc(Cl)ccc3C)c2c1` [Compound 2CC] cannot be ordered by IC50: greater than 20 µM for the first, greater than 20 µM for the second.

`CCc1ccc(NCc2cc3ccc(OC)cc3n(CC(=O)Nc3cccc(Cl)c3)c2=O)cc1` [Compound 2BT] and `CCc1ccc(NCc2cc3ccc(OC)cc3n(CC(=O)Nc3ccc(C)c(C)c3)c2=O)cc1` [Compound 2CT] cannot be ordered by IC50: greater than 20 µM for the first, greater than 20 µM for the second.

`COc1ccc(NCc2cc3ccc(OC)cc3n(CC(=O)Nc3ccccc3C)c2=O)cc1` [Compound 2BV] and `CCc1ccc(NCc2cc3ccc(OC)cc3n(CC(=O)Nc3ccccc3C)c2=O)cc1` [Compound 2CP] cannot be ordered by IC50: greater than 20 µM for the first, greater than 20 µM for the second.

`COc1ccc2cc(CNc3ccccc3)c(=O)n(CC(=O)Nc3ccc(Br)cc3)c2c1` [Compound 2BW] and `COc1ccc2cc(CNc3ccccc3)c(=O)n(CC(=O)Nc3ccc(Cl)cc3)c2c1` [Compound 2CA] cannot be ordered by IC50: greater than 20 µM for the first, greater than 20 µM for the second.

`COc1cccc(NC(=O)Cn2c(=O)c(CNc3ccccc3)cc3cc4c(cc32)OCCO4)c1` [Compound 2BY] and `COc1ccccc1NC(=O)Cn1c(=O)c(CNc2ccccc2)cc2cc3c(cc21)OCCO3` [Compound 2EF] cannot be ordered by IC50: greater than 20 µM for the first, greater than 20 µM for the second.

`COc1ccc2cc(CNc3ccc(C)cc3)c(=O)n(CC(=O)Nc3cccc(C(F)(F)F)c3)c2c1` [Compound 2BZ] and `COc1ccc2cc(CNc3ccc(C)cc3)c(=O)n(CC(=O)Nc3cccc(F)c3)c2c1` [Compound 2DN] cannot be ordered by IC50: greater than 20 µM for the first, greater than 20 µM for the second.

Compared with `CCOc1ccccc1NC(=O)Cn1c(=O)c(CNc2ccc(CC)cc2)cc2ccc(OC)cc21` [Compound 2B], `CCc1ccc(NCc2cc3ccc(OC)cc3n(CC(=O)Nc3ccccc3OC)c2=O)cc1` [Compound 2DV] is higher in IC50: less than 1 µM for the first, greater than 20 µM for the second. The first is the more potent here.

`COc1cc2cc(CNc3ccccc3)c(=O)n(CC(=O)Nc3ccc(C)cc3C)c2cc1OC` [Compound 2CB] and `COc1cc2cc(CNc3ccccc3)c(=O)n(CC(=O)Nc3cc(Cl)ccc3C)c2cc1OC` [Compound 2DP] cannot be ordered by IC50: greater than 20 µM for the first, greater than 20 µM for the second.

`Cc1ccc(NCc2cc3cc4c(cc3n(CC(=O)Nc3cc(C)ccc3C)c2=O)OCCO4)cc1` [Compound 2CD] and `Cc1ccc(NCc2cc3cc4c(cc3n(CC(=O)Nc3cccc(C)c3)c2=O)OCCO4)cc1` [Compound 2DG] cannot be ordered by IC50: greater than 20 µM for the first, greater than 20 µM for the second.

`COc1ccc2cc(CNc3ccc(C)cc3)c(=O)n(CC(=O)Nc3ccc4c(c3)OCCO4)c2c1` [Compound 2CE] and `COc1ccc(NC(=O)Cn2c(=O)c(CNc3ccc(C)cc3)cc3cc4c(cc32)OCCO4)cc1` [Compound 2CR] cannot be ordered by IC50: greater than 20 µM for the first, greater than 20 µM for the second.

`CCc1ccc(NCc2cc3cc(OC)c(OC)cc3n(CC(=O)Nc3ccccc3)c2=O)cc1` [Compound 2CF] and `CCc1ccc(NC(=O)Cn2c(=O)c(CNc3ccccc3)cc3cc(OC)c(OC)cc32)cc1` [Compound 2CL] cannot be ordered by IC50: greater than 20 µM for the first, greater than 20 µM for the second.

`COc1cc2cc(CNc3ccccc3)c(=O)n(CC(=O)Nc3ccc(F)cc3)c2cc1OC` [Compound 2CG] and `COc1ccc(NC(=O)Cn2c(=O)c(CNc3ccccc3)cc3cc(OC)c(OC)cc32)cc1` [Compound 2DO] cannot be ordered by IC50: greater than 20 µM for the first, greater than 20 µM for the second.

`CCc1cccc(NC(=O)Cn2c(=O)c(CNc3ccccc3)cc3ccc(OC)cc32)c1` [Compound 2CH] and `COc1ccc2cc(CNc3ccccc3)c(=O)n(CC(=O)Nc3cccc(C)c3)c2c1` [Compound 2ED] cannot be ordered by IC50: greater than 20 µM for the first, greater than 20 µM for the second.

`CCc1ccc(NCc2cc3cc4c(cc3n(CC(=O)Nc3ccc(CC)cc3)c2=O)OCCO4)cc1` [Compound 2CI] and `CCc1ccc(NCc2cc3cc4c(cc3n(CC(=O)Nc3ccccc3)c2=O)OCCO4)cc1` [Compound 2DW] cannot be ordered by IC50: greater than 20 µM for the first, greater than 20 µM for the second.

`COc1cc2cc(CNc3ccc(C)cc3)c(=O)n(CC(=O)Nc3ccc(C(C)C)cc3)c2cc1OC` [Compound 2CJ] and `COc1cc2cc(CNc3ccc(C)cc3)c(=O)n(CC(=O)Nc3ccc(C)c(C)c3)c2cc1OC` [Compound 2DI] cannot be ordered by IC50: greater than 20 µM for the first, greater than 20 µM for the second.

`COc1ccc2cc(CNc3ccccc3)c(=O)n(CC(=O)Nc3ccc(C)c(C)c3)c2c1` [Compound 2CK] and `COc1ccc2cc(CNc3ccccc3)c(=O)n(CC(=O)Nc3ccc(C)c(Cl)c3)c2c1` [Compound 2CO] cannot be ordered by IC50: greater than 20 µM for the first, greater than 20 µM for the second.

`COc1ccc(OC)c(NC(=O)Cn2c(=O)c(CNc3ccccc3)cc3ccc(C)cc32)c1` [Compound 2CM] and `COc1ccc2cc(CNc3ccccc3)c(=O)n(CC(=O)Nc3ccccc3OC)c2c1` [Compound 2CS] cannot be ordered by IC50: greater than 20 µM for the first, greater than 20 µM for the second.

`COc1cccc(NC(=O)Cn2c(=O)c(CNc3ccccc3)cc3cc(OC)c(OC)cc32)c1` [Compound 2CN] and `COc1cc2cc(CNc3ccccc3)c(=O)n(CC(=O)Nc3ccccc3C)c2cc1OC` [Compound 2CZ] cannot be ordered by IC50: greater than 20 µM for the first, greater than 20 µM for the second.

`CCOc1ccc(NC(=O)Cn2c(=O)c(CNc3ccccc3)cc3ccc(C)cc32)cc1` [Compound 2CQ] and `COc1ccc(NC(=O)Cn2c(=O)c(CNc3ccccc3)cc3ccc(OC)cc32)cc1` [Compound 2DH] cannot be ordered by IC50: greater than 20 µM for the first, greater than 20 µM for the second.

`CCc1ccc(NC(=O)Cn2c(=O)c(CNc3ccc(C)cc3)cc3ccc(OC)cc32)cc1` [Compound 2CU] and `CCc1ccc(NCc2cc3ccc(OC)cc3n(CC(=O)Nc3ccc(C)cc3)c2=O)cc1` [Compound 2DT] cannot be ordered by IC50: greater than 20 µM for the first, greater than 20 µM for the second.

`CCOc1ccc(NC(=O)Cn2c(=O)c(CNc3ccc(OC)cc3)cc3ccc(OC)cc32)cc1` [Compound 2CV] and `CCc1ccc(NC(=O)Cn2c(=O)c(CNc3ccc(OC)cc3)cc3ccc(OC)cc32)cc1` [Compound 2DL] cannot be ordered by IC50: greater than 20 µM for the first, greater than 20 µM for the second.

`CCc1ccc(NCc2cc3ccc(OC)cc3n(CC(=O)Nc3ccc(CC)cc3)c2=O)cc1` [Compound 2CW] and `CCc1ccc(NCc2cc3ccc(OC)cc3n(CC(=O)NCc3ccc(C)cc3)c2=O)cc1` [Compound 2DQ] cannot be ordered by IC50: greater than 20 µM for the first, greater than 20 µM for the second.

`COc1ccc2cc(CNc3ccccc3)c(=O)n(CC(=O)Nc3ccc(C(C)=O)cc3)c2c1` [Compound 2CX] and `COc1ccc2cc(CNc3ccccc3)c(=O)n(CC(=O)Nc3ccc(C(C)C)cc3)c2c1` [Compound 2DS] cannot be ordered by IC50: greater than 20 µM for the first, greater than 20 µM for the second.

`COc1cc(NC(=O)Cn2c(=O)c(CNc3ccc(C)cc3)cc3ccc(OC)cc32)cc(OC)c1` [Compound 2CY] and `COc1ccc2cc(CNc3ccc(C)cc3)c(=O)n(CC(=O)Nc3ccc(C)c(Cl)c3)c2c1` [Compound 2DR] cannot be ordered by IC50: greater than 20 µM for the first, greater than 20 µM for the second.

Compared with `CCOC(=O)c1ccccc1NC(=O)Cn1c(=O)c(CNc2ccccc2)cc2ccc(OC)cc21` [Compound 2C], `CCOC(=O)c1ccccc1NC(=O)Cn1c(=O)c(CNc2ccc(C)cc2)cc2ccc(OC)cc21` [Compound 2D] is higher in IC50: less than 1 µM for the first, 1 to 20 µM for the second. The first is the more potent here.

`Cc1ccc(NCc2cc3cc4c(cc3n(CC(=O)Nc3ccccc3)c2=O)OCCO4)cc1` [Compound 2DA] and `CC(=O)c1ccc(NC(=O)Cn2c(=O)c(CNc3ccc(C)cc3)cc3cc4c(cc32)OCCO4)cc1` [Compound 2DC] cannot be ordered by IC50: greater than 20 µM for the first, greater than 20 µM for the second.

`COc1ccc2cc(CNc3ccccc3)c(=O)n(CC(=O)Nc3ccccc3Cl)c2c1` [Compound 2DB] and `COc1ccc2cc(CNc3ccccc3)c(=O)n(CC(=O)Nc3ccccc3F)c2c1` [Compound 2DD] cannot be ordered by IC50: greater than 20 µM for the first, greater than 20 µM for the second.

`CCc1ccc(NCc2cc3cc(OC)c(OC)cc3n(CC(=O)Nc3cccc(C)c3)c2=O)cc1` [Compound 2DE] and `CCc1ccc(NCc2cc3cc(OC)c(OC)cc3n(CC(=O)Nc3ccc(C)c(C)c3)c2=O)cc1` [Compound 2EC] cannot be ordered by IC50: greater than 20 µM for the first, greater than 20 µM for the second.

`COc1ccc2cc(CNc3ccc(C)cc3)c(=O)n(CC(=O)Nc3ccc(F)cc3F)c2c1` [Compound 2DF] and `COc1ccc2cc(CNc3ccc(C)cc3)c(=O)n(CC(=O)Nc3ccccc3Cl)c2c1` [Compound 2EB] cannot be ordered by IC50: greater than 20 µM for the first, greater than 20 µM for the second.

`COc1cc2cc(CNc3ccc(C)cc3)c(=O)n(CC(=O)Nc3cc(C)cc(C)c3)c2cc1OC` [Compound 2DJ] and `CCc1ccc(NCc2cc3cc(OC)c(OC)cc3n(CC(=O)Nc3ccccc3C)c2=O)cc1` [Compound 2DK] cannot be ordered by IC50: greater than 20 µM for the first, greater than 20 µM for the second.

`COc1ccc2cc(CNc3ccccc3)c(=O)n(CC(=O)Nc3ccccc3)c2c1` [Compound 2DM] and `COc1cccc(NC(=O)Cn2c(=O)c(CNc3ccccc3)cc3ccc(OC)cc32)c1` [Compound 2DX] cannot be ordered by IC50: greater than 20 µM for the first, greater than 20 µM for the second.

`COc1ccccc1NC(=O)Cn1c(=O)c(CNc2ccccc2)cc2ccc(C)cc21` [Compound 2DU] and `COc1ccc2cc(CNc3ccccc3)c(=O)n(CC(=O)Nc3cccc(C(F)(F)F)c3)c2c1` [Compound 2EE] cannot be ordered by IC50: greater than 20 µM for the first, greater than 20 µM for the second.

`COc1ccc(NCc2cc3cc4c(cc3n(CC(=O)NCc3ccccc3)c2=O)OCCO4)cc1` [Compound 2DY] and `CCc1ccc(NCc2cc3ccc(OC)cc3n(CC(=O)NCc3ccccc3)c2=O)cc1` [Compound 2EA] cannot be ordered by IC50: greater than 20 µM for the first, greater than 20 µM for the second.

`COc1ccc2cc(CNc3ccc(C)cc3)c(=O)n(CC(=O)NCc3ccc(F)cc3)c2c1` [Compound 2DZ] was tested, and the IC50 was greater than 20 µM.
